Our source for the IC50 values is patent US20130184273A1, “BICYCLIC PYRIMIDINES” (Bayer Intellectual Property GmbH, priority 2010, published 2013).

Structures are written as SMILES.

In assay [1] the target is T1, His-tagged human recombinant kinase full-length Akt1 (Homo sapiens, UniProt P31749).
T1 construct: His-tagged human recombinant kinase full-length Akt1; His; purchased Invitrogen PV 3599; host or cells: insect cells
The experiment in a line: Akt1 kinase assay (TR-FRET). The following applies: 10 μM ATP, 60 min at 22° C., read-out: Akt1, median IC50. The assay is classed as biochemical.

The target of assay [2] is T2, His-tagged human recombinant kinase full-length Akt2 (Homo sapiens, UniProt P31751).
T2 construct: His-tagged human recombinant kinase full-length Akt2; His; purchased Invitrogen PV 3975; host or cells: insect cells
The experiment in a line: Akt2 kinase assay (TR-FRET). The format is biochemical. The following applies: 10 μM ATP, 60 min at 22° C., read-out: Akt2, median IC50. In short, it runs like this: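 TR-FRET read-out (anti-phosphoserine antibody, Eu-labelled anti-mouse IgG, streptavidin-XL665) of a 60 min, 22 °C reaction using 1 μM biotinylated peptide and 10 μM ATP. Enzyme: PDK1-activated full-length His-Akt2 from insect cells, about 0.2 ng/μl, with 15 min compound pre-binding; data normalised to no-inhibitor and no-enzyme controls.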
On the technique in general: Time-resolved FRET reads energy transfer from a long-lived donor to a nearby acceptor.

T1 sequence (P31749 whole entry): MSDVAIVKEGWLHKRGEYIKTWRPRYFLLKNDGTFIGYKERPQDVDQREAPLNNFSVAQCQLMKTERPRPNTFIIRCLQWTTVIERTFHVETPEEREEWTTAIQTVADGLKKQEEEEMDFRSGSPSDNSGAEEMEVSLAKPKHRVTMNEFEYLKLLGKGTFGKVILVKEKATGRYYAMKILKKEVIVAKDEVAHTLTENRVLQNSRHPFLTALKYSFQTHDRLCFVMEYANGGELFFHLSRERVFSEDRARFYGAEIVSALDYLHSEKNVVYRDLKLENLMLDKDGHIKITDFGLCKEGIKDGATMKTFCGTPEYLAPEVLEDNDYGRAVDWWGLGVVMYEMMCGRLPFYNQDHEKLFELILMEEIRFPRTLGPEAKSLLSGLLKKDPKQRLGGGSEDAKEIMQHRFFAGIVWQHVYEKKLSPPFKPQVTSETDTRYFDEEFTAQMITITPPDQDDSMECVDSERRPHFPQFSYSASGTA
T2 sequence (P31751 whole entry): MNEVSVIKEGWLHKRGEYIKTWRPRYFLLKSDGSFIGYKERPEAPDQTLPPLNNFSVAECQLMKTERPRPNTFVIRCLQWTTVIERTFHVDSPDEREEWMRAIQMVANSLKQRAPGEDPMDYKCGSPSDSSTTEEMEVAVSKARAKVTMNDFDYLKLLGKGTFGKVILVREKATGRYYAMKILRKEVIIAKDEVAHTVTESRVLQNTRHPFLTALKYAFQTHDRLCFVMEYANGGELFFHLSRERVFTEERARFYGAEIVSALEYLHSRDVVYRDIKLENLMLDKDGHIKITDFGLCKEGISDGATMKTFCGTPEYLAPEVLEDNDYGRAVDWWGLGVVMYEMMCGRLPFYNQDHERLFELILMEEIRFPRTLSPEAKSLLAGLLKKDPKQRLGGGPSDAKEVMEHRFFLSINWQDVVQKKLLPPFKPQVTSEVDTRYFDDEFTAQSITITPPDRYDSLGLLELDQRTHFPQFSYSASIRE

As for `Cc1nc2nc(-c3ccc(C4(N)CCC4)cc3)c(-c3ccccc3)cn2n1` [Example 1-0, 1-[4-(2-methyl-6-phenyl-[1,2,4]triazolo[1,5-a]pyrimidin-5-yl)-phenyl]-cyclobutylamine], the IC50 (usually the midpoint of a concentration-inhibition curve) in assay [1] came out at 794 nM; in assay [2], 960 nM.

With `NC1(c2ccc(-c3nc4ncc(-c5ccc(F)cc5)n4cc3-c3ccccc3)cc2)CCC1` [Example 6-0, 1-{4-[3-(4-Fluorophenyl)-6-phenyl-imidazo[1,2-a]pyrimidin-7-yl]-phenyl}-cyclobutylamine], the IC50 in assay [1] turned out to be 1410 nM; in assay [2], 681 nM.

Turning to `Cn1cc(-c2nc3nc(-c4ccc(C5(N)CCC5)cc4)c(-c4ccccc4)cn3n2)cn1` [Example 5-2, 1-{4-[2-(1-methyl-1H-pyrazol-4-yl)-6-phenyl-[1,2,4]triazolo[1,5-a]pyrimidin-5-yl]-phenyl}-cyclobutylamine], the half-maximal inhibitory concentration (IC50) in assay [1] stood at 376 nM; in assay [2], 340 nM.

In the case of `NC(=O)c1cccc(-c2cnc3nc(-c4ccc(C5(N)CCC5)cc4)c(-c4ccccc4)cn23)c1` [Example 6-2, 3-{7-[4-(1-Amino-cyclobutyl)-phenyl]-6-phenyl-imidazo[1,2-a]pyrimidin-3-yl}-benzamide], the IC50 is 824 nM in assay [1] and 205 nM in assay [2].

Take `Cc1cn2cc(-c3ccccc3)c(-c3ccc(C4(N)CCC4)cc3)nc2n1` [Example 2-1, 1-[4-(2-Methyl-6-phenyl-imidazo[1,2-a]pyrimidin-7-yl)-phenyl]-cyclobutylamine]: the IC50 in assay [1] was 474 nM; in assay [2] it was 487 nM.

In the case of `NC1(c2ccc(-c3nc4ncc(-c5cn[nH]c5)n4cc3-c3ccccc3)cc2)CCC1` [Example 6-3, 1-{4-[6-Phenyl-3-(1H-pyrazol-4-yl)-imidazo[1,2-a]pyrimidin-7-yl]-phenyl}-cyclobutylamine], the IC50 in assay [1] worked out at 235 nM; in assay [2], 165 nM.

Take `CS(=O)(=O)c1ccc(-c2cnc3nc(-c4ccc(C5(N)CCC5)cc4)c(-c4ccccc4)cn23)cc1` [Example 4-0, 1-{4-[3-(4-Methansulfonyl-phenyl)-6-phenyl-imidazo[1,2-a]pyrimidin-7-yl]-phenyl}-cyclobutylamine]: the half-maximal inhibitory concentration (IC50) amounted to 329 nM in assay [1] and 299 nM in assay [2].
